Test results taken from US9089561B2, “Methods for treating depression, neurodegeneration, inhibiting amyloid β deposition, delaying senescence, and extending life spans with heterocyclic compounds” (ZENYAKU KOGYO KABUSHIKI KAISHA, priority 2006, dated 2015).

How the values were obtained:
[1] = tested on: gerbil transient forebrain ischemia model; test: delayed neuronal death in hippocampus CA1 region, gerbil transient forebrain ischemia model; type: in vivo; details: four days after reperfusion
Experimental: Gerbils (male, weighing approximately 55 to 80 g) were pinched with an exposured bilateral common carotid artery by microclip to cause the cerebral ischemia under 2% halothane inhalation anesthesia. After four minutes of ischemia, the microclip was removed to reperfuse the cerebral ischemia and the anesthesia was stopped. Four days after the reperfusion, the brain was removed and formalin-fixed. Sections of 4 μm in thickness were prepared and stained with hematoxylin-eosin. Surviving cells in the entire hippocampus CA1 field on both sides of each specimen were counted using a micrometer under the microscope. The number of surviving cells per 0.5 mm was obtained.
Compound 24 was suspended in 1% HPC and orally given one hour before the cerebral ischemia and 5 hours after the reperfusion. Then, two doses per day were given from the following day to the third day since the perfusion. The surviving cell count in the hippocampus CA1 field was expressed by the average±standard error. The Mann-Whitney's U test was used to obtain significant differences. The effective oral dosage of Compound 24 was plotted as abscissa and the surviving cell count/0.5 mm was plotted as ordinate.

[2] = tested on: senescene accelerated mice (SAMP8); test: amyloid β deposition in the hippocampus by amyloid β immunohistochemistry; type: in vivo; details: 0.002, 0.01 and 0.1 mg/kg/day in drinking water for 2 months, vs tap water
Experimental: Senescene accelerated mice (SAMP8) (male, 8 months old at the beginning of the study) were used for experiment. […] Eight weeks after the dosing, the mouse brain was removed, Methacarn-fixed (methanol:chloroform: acetic acid=6:3:1), and paraffin-embedded. Then, sections of 8 μm in thickness were prepared using a microtome.
The sections were immunostained with streptavidin-biotin using a VECTASTATIN ABC kit. After one hour of incubation in 10% normal goat serum, the anti-amyloid β (Aβ) antibody was diluted with PBS to ten fold and incubated at 4° C. overnight. The following day, PBS rinsing, 1.5 hours of incubation with biotinylated anti-rabbit secondary antibody, PBS rinsing, and 1.5 hours of incubation with peroxidase-labeled streptavidin were conducted. The immunoreaction was visualized with DAB and specimens were prepared.
Immunoreactive Aβ-like granules in the hippocampus were counted under the microscope. The Aβ-like immunoreactive granule was observed as brown deposits in the hippocampus. The count was made for one section per individual.

[3] = tested on: senescene accelerated mice (SAMP8); test: grading scores as aging indicator in senescene accelerated mice; type: in vivo
Experimental: (§1) Senescene accelerated mice (SAMP8) (male, 8 months old at the beginning of the study) were used in the study.
(§2) Compound 24 dissolved in tap water was given to the senescene accelerated mice at a dosage of 0.001, 0.01, or 0.1 mg/kg/day as drinking water. Tap water was given to the control mice as drinking water.
As an aging indicator of senescene accelerated mice, grading scores (Takeda et al., 1981) were measured after 0, 4, 8, 12, and 16 weeks of drinking water dosing in a short term study and after 12, 16, 20, 24, 28, and 32 weeks of drinking water dosing in a long term study.

[4] = tested on: senescene accelerated mice (SAMP8); test: survival rate / average life span of senescene accelerated mice; type: in vivo; details: 0.01 mg/kg/day in drinking water, vs control group given tap water, at any age in month
Experimental: as §1, §2
FIG. 6 is a graphical representation showing the influence of Compound 24 on the survival rate of senescene accelerated mice (SAMP8). The age in months of mice is plotted as abscissa and the survival rate (%) is plotted as ordinate.

[5] = preclinical study (safety)

O=C1N=C2C=CC=CN2C12Cc1ccccc1C2 [Compound 24, spiro[imidazo[1,2-a]pyridin-2(3H)-one-3,2′-indan]]
surviving cell count in the hippocampus CA1 field ([1]; 0.01 mg/kg oral, n=7, average±standard error): 27.8±1.9 /0.5 mm | surviving cell count in the hippocampus CA1 field ([1]; 0.1 mg/kg oral, n=8, average±standard error): 32.5±9.4 /0.5 mm | surviving cell count in the hippocampus CA1 field ([1]; 1 mg/kg oral, n=9, average±standard error): 44.3±9.4 /0.5 mm | number of amyloid β-immunoreactive granules in the hippocampus [2]: significantly (*) decreased | grading score vs control, long term study ([3]; 0.01 mg/kg/day in drinking water, Weeks 20 to 32): significant differences (*, **) | grading score vs control, long term study ([3]; 0.1 mg/kg/day in drinking water, Weeks 16 to 32): significant differences (*, **) | grading score vs control, short term study ([3]; Week 16, 0.001, 0.01 and 0.1 mg/kg/day in drinking water): Significant differences (*) | grading score (aging indicator), short term study ([3]; in drinking water, up to 16 weeks, score of water group increased after Week 12): did not increase | average life span (survival rate) [4]: average life span was extended | safety in a preclinical study [5]: highly safe
